Assay results as given in article PMC11653243, “Enhancing Phototoxicity in BODIPY‐Perylene Charge Transfer Dyads by Combined Iodination and Mesylation” (Chemistry (Weinheim an Der Bergstrasse, Germany), 2024).
Read-outs that look alike come from different tables or passages of the source.

How the values were obtained:
[1] = system: CHO cells; test: Dark toxicity, 24 h, alamar blue assay; format: cell-based, Chinese Hamster; settings: Cricetulus griseus, light or radiation study, without irradiation, 24 h in the dark at 37 °C
Protocol: (§1) Typical of many BODIPY derivatives, the BODIPY's presented in this work are insoluble in aqueous media, including PBS, and thus the main stock solutions (2–3 mM) were prepared in 100 % DMSO and diluted in media immediately before treating the cells. The maximum concentration for dark toxicity was set at 50 μM to keep the concentration of DMSO ≤1 % (v/v) to maintain cell health. As a result, it was not possible to determine an exact dark IC50 value as concentrations above 50 μM demanded DMSO concentrations that would affect the viability of the cells. Dietzek‐Ivanšić et al previously reported on the effect of DMSO on MCF‐7 cell viability, where cell viability remained high (95 %) in cells treated with 1 % DMSO in cell culture media for 24 h, whereas only 40 % of cells remained viable after treatment with 3.8 % DMSO. Working stocks in cell culture media remained stable within the incubation times used for cellular studies i. e. up to 24 h.[25]
(§2) Dark‐ and photo‐toxicity studies were performed by seeding CHO and MCF‐7 cells in clear 96‐well plates (Nunc) and treating with varying concentrations of B2P, MB2P, B2PI and MB2PI. Phototoxicity experiments were carried out using a 470 nm LED. For hypoxic phototoxicity studies, hypoxia was mimicked by adding CoCl2 to the cells prior to irradiation. Cell viability was determined using the alamar blue assay and absorbance measured with a BMG LABTECH CLARIOstar plate reader. […]
(§3) For 24 h dark toxicity studies, 50, 10, 5 and 1 µM stock concentrations of B2P, B2PI, MB2P and MB2PI were prepared in media to a final DMSO concentration of ≤1%. 100 µL of each concentration was added to the wells in triplicate and the plates incubated for 24 h in the dark at 37°C. Cell viability of all plate-based studies was assessed using the alamar blue assay. A 10% Resazurin-media solution (alamarBlue, Invitrogen) was added to the wells and incubated for 5 h in the absence of light. Absorbance was measured using a BMG LABTECH CLARIOstar plate reader at 570 nm and 600 nm (corrected for background subtraction). Cell viability is presented as a percentage (%) compared to untreated control wells. Plates were performed in triplicate. […]

[2] = system: MCF‐7 cells; test: Dark toxicity, 24 h, alamar blue assay; format: cell-based; settings: Homo sapiens, MCF7, light or radiation study, without irradiation, 24 h in the dark at 37 °C
Protocol: as §1, §2, §3

[3] = system: MCF‐7 cells; test: Phototoxicity, 470 nm LED, alamar blue assay; format: cell-based; settings: for Photo Index (PI), ratio of dark IC50 to light IC50: 17 J/cm^2, 470 nm LED; for IC50: Homo sapiens, MCF7, light or radiation study, 17 h incubation, 470 nm LED, 17±1.64 J/cm^2 (2.5 mW/cm^2 for 2 h)
Protocol: The phototoxicity of the BODIPY's were assessed to compare the light induced toxicity of the iodinated compounds with their non‐iodinated counterparts. CHO and MCF‐7 cells were treated with B2P, B2PI, MB2P, and MB2PI in a concentration range from 0.10–1 μM for 17 h, the wells were decanted and filled with 100 μL phenol red free media prior to irradiation with a 470 nm LED (17 J/cm^2). Cell viability was determined using the alamar blue cell viability assay and % viability was calculated relative to untreated control wells.
as §2
For 24 h dark toxicity studies, 50, 10, 5 and 1 µM stock concentrations of B2P, B2PI, MB2P and MB2PI were prepared in media to a final DMSO concentration of ≤1%. 100 µL of each concentration was added to the wells in triplicate and the plates incubated for 24 h in the dark at 37°C. Cell viability of all plate-based studies was assessed using the alamar blue assay. A 10% Resazurin-media solution (alamarBlue, Invitrogen) was added to the wells and incubated for 5 h in the absence of light. Absorbance was measured using a BMG LABTECH CLARIOstar plate reader at 570 nm and 600 nm (corrected for background subtraction). Cell viability is presented as a percentage (%) compared to untreated control wells. Plates were performed in triplicate.
Phototoxicity and dark control plates were performed by incubating CHO or MCF-7 cells with B2P, B2PI, MB2P and MB2PI for 17 h to allow uptake, emptying the wells, replacing with phenol red free media, and irradiating at a total dose of 17 ± 1.64 J/cm2 (2 h at 2.37 ± 0.23 mW/cm2) using a 470 nm LED (TeleOpto LEDA-X LED driver and array). Control plates were incubated in the dark during the irradiation period (2 h). After irradiation, the cells were incubated in the dark overnight to allow for cell recovery. Irradiation conditions were tested on untreated cells to confirm cells remained viable at this dose before any experiments were performed and each phototoxicity plate included untreated test wells for cell viability comparison. Viability was determined using the alamar blue assay as per the cytotoxicity

[4] = set-up: method as in PMID 36802283; settings: cited from earlier work

Structure (SMILES): CC1=C(I)C(C)=[N+]2C1=C(c1ccccc1)c1c(C)c(-c3ccc4c5cccc6cccc(c7cccc3c74)c65)c(C)n1[B-]2(F)F [B2PI]
- IC50 [1]: > 50 µM
- IC50 [2]: > 50 µM
- Photo Index (PI), ratio of dark IC50 to light IC50 [3]: > 213
- Mol. Bright ([4]; Dioxane): 2028
- Stokes Shift ([4]; Dioxane): 3232 cm⁻¹
- knr ([4]; Dioxane): 68 10^7 s^−1
- kr ([4]; Dioxane): 1.8 10^7 s^−1
- Φf ([4]; Dioxane): 0.03
- λabs ([4]; Dioxane): 531 nm
- λem ([4]; Dioxane): 641 nm
- τave ([4]; Dioxane): 1.4±0.01 ns
- ϵ ([4]; Dioxane): 67600 M⁻¹ cm⁻¹
- Amp of τ1 ([4]; Toluene): 7.2%
- Amp of τ2 ([4]; Toluene): 92.8%
- Mol. Bright ([4]; Toluene): 1899
- Stokes Shift ([4]; Toluene): 3003 cm⁻¹
- knr ([4]; Toluene): 32 10^7 s^−1
- kr ([4]; Toluene): 8.5 10^7 s^−1
- Φf ([4]; Toluene): 0.03
- λabs ([4]; Toluene): 534 nm
- λem ([4]; Toluene): 636 nm
- τ1 ([4]; Toluene): 2.9±0.1 ns
- τ2 ([4]; Toluene): 0.7±0.01 ns
- τave ([4]; Toluene): 1.2±0.0 ns
- ϵ ([4]; Toluene): 63300 M⁻¹ cm⁻¹

Structure (SMILES): CC1=C(c2ccc3c4cccc5cccc(c6cccc2c63)c54)C(C)=[N+]2C1=C(c1c(C)cc(C)cc1C)c1c(C)c(I)c(C)n1[B-]2(F)F [MB2PI]
- IC50 [1]: > 50 µM
- IC50 [2]: > 50 µM
- Photo Index (PI), ratio of dark IC50 to light IC50 [3]: > 218
- IC50 [3]: 0.229 µM

Structure (SMILES): CC1=C(c2ccc3c4cccc5cccc(c6cccc2c63)c54)C(C)=[N+]2C1=C(c1c(C)cc(C)cc1C)c1c(C)cc(C)n1[B-]2(F)F [MB2P]
- IC50 [1]: > 50 µM
- IC50 [2]: > 50 µM
- Photo Index (PI), ratio of dark IC50 to light IC50 [3]: > 109
- IC50 [3]: 0.457 µM

Structure (SMILES): CC1=CC(C)=[N+]2C1=C(c1ccccc1)c1c(C)c(-c3ccc4c5cccc6cccc(c7cccc3c74)c65)c(C)n1[B-]2(F)F [B2P]
- IC50 [1]: > 50 µM
- IC50 [2]: > 50 µM
- Photo Index (PI), ratio of dark IC50 to light IC50 [3]: > 182
- IC50 [3]: 0.274 µM
- Amp of τ1 ([4]; Dioxane): 5.3%
- Amp of τ2 ([4]; Dioxane): 94.7%
- Mol. Bright ([4]; Dioxane): 6588
- Stokes Shift ([4]; Dioxane): 3417 cm⁻¹
- knr ([4]; Dioxane): 44 10^7 s^−1
- kr ([4]; Dioxane): 4.6 10^7 s^−1
- Φf ([4]; Dioxane): 0.09
- λabs ([4]; Dioxane): 515 nm
- λem ([4]; Dioxane): 625 nm
- τ1 ([4]; Dioxane): 4.1±0.2 ns
- τ2 ([4]; Dioxane): 1.8±0.0 ns
- τave ([4]; Dioxane): 2.0±0.0 ns
- ϵ ([4]; Dioxane): 73200 M⁻¹ cm⁻¹
- Mol. Bright ([4]; Toluene): 16884
- Stokes Shift ([4]; Toluene): 3071 cm⁻¹
- knr ([4]; Toluene): 79 10^7 s^−1
- kr ([4]; Toluene): 2.6 10^7 s^−1
- Φf ([4]; Toluene): 0.21
- λabs ([4]; Toluene): 518 nm
- λem ([4]; Toluene): 616 nm
- τ1 ([4]; Toluene): 2.5±0.0 ns
- τave ([4]; Toluene): 2.5±0.01 ns
- ϵ ([4]; Toluene): 80400 M⁻¹ cm⁻¹
